Laboratory results published in PubChem BioAssay AID1963982 (Molecular Pharmacology Branch, DTP, NCI, 2024).
pIC50: −log10 of the molar value.

Tested on: 313798-341-R-J2-PDC spheroids, viability
Assay: Anticancer human tumor 313798-341-R-J2-PDC patient-derived cervical squamous cell carcinoma cell line growth inhibition [PI3K]
Settings: spheroids with HUVEC and MSC; for pIC50: curve of first compound; for viability, T/C: stronger effect = lower value
Text: Combinatorial screen of targeted agents with the PI3K inhibitors inavolisib, alpelisib, duvelisib, and copanlisib in multi-cell type tumor spheroids
A high-throughput screen of multi-cell type tumor spheroids was designed to identify active combinations of targeted small molecules and PI3K pathway inhibitors. Complex spheroids include a stromal component modeled by human endothelial cells (HUVEC) and fibroblasts modeled by human mesenchymal stem cells (MSCs). The concentration ranges selected for each drug and investigational agent were based upon clinically achievable concentrations if the clinical Cmax of the agent was known.
Compounds. The drugs and investigational agents: inavolisib (NSC800729), alpelisib (NSC765974), duvelisib (NSC772469), copanlisib (NSC816437), ipatasertib (NSC767898), afuresertib (NSC778305), talazoparib (NSC767125), sapanisertib (NSC764658), selumetinib (NSC741078), tovorafenib (DAY101, NSC766906), vemurafenib (NSC761431), ravoxertinib (NSC781343), sotorasib (NSC818433), MRTX1133 (NSC 836407), abemaciclib (NSC 768073), palbociclib (NSC758247), venetoclax (NSC 766270), SY5609 (NSC837396), enzalutamide (NSC755605), and darolutamide (NSC825331), were obtained from the National Cancer Institute (NCI) Developmental Therapeutics Program Chemical Repository. The FDA-approved anticancer drug set is available from the NCI Developmental Therapeutics Program. […] The stock solutions were prepared in dimethyl sulfoxide (DMSO, Sigma-Aldrich, St. Louis, MO, cat. D2650) at 800-fold the tested concentration and stored at -70 degrees C prior to their use. All drugs and investigational agents were tested over a range starting from a high concentration at or near the clinical Cmax and decreasing in half-log increments. If the clinical Cmax for an agent had not been determined, the highest concentration tested was 10 microM.
Cell Culture. All cells were maintained in an incubator at 37 degrees C and 5% CO2 with 95% humidity. The PDC lines were cultured according to standard operating procedures established by the NCI PDMR (https://pdmr.cancer.gov/sops/default.htm). All PDCs were thawed and cultured in Matrigel-coated flasks prepared with a working solution of 1X Ham's F-12 nutrient mix, without supplementation (Invitrogen, Waltham, MA, cat. 11765054), 100 U/mL penicillin-streptomycin (Invitrogen, cat. 15140122), and 2.5% Matrigel (Corning Inc., Corning, NY, cat. 354248) for the first three passages. The 354836-022-R-J1-PDC, 475296-252-R-J1-PDC, and 997726-040-R-J2-PDC lines were cultured in 6A media, which includes advanced DMEM/F-12 (Thermo Fisher Scientific, cat. 12634028), 10 mM HEPES (Thermo Fisher Scientific, cat. 15630080), 1X GlutaMAX supplement (Thermo Fisher Scientific, cat. 35050061), 0.1 mg/mL primocin (InvivoGen, San Diego, CA, cat. ant-pm-2), 10% defined fetal bovine serum, heat inactivated (HyClone Laboratories Inc., Logan, UT, cat. SH30070.03HI), 50% L-WRN conditioned media (ATCC, cat. CRL-3276), 1.25 mM N-Acetyl-L-cysteine (Sigma-Aldrich, cat. A9165), 10 mM nicotinamide (Sigma-Aldrich, cat. N0636), 1X B-27 supplement (Thermo Fisher Scientific, cat. 17504044), 1X N-2 supplement (Thermo Fisher Scientific, cat. 17502048), and 10 microM Y-27632 dihydrochloride (Tocris Bioscience, Bristol, United Kingdom, cat. 1254). The 624824-186-R-J2-PDC line was cultured in 6C/Colon 1B media, which includes all 6A media components plus 50 ng/mL human EGF recombinant protein (Thermo Fisher Scientific, cat. PHG0311). […]
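Also: spheroids exposed to compounds for seven days.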
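For viability, T/C in this document: 100% = DMSO vehicle control viability.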

Cn1cnc2c(F)c(Nc3ccc(Br)cc3Cl)c(C(=O)NOCCO)cc21 + CC(Nc1ccc2c(c1)OCCn1cc(N3C(=O)OCC3C(F)F)nc1-2)C(N)=O
pIC50 (second compound 0.00316 µM): 5.92
pIC50 (second compound 0.01 µM): 6.08
pIC50 (second compound 0.0316 µM): 6.26
pIC50 (second compound 0.1 µM): 6.58
pIC50 (second compound 0.316 µM): 7.58
pIC50 (second compound 1 µM): > 8.02
viability, T/C (second compound 0.00316 µM, first compound 0.00949 µM): 87.2%
viability, T/C (second compound 0.00316 µM, first compound 0.03 µM): 107%
viability, T/C (second compound 0.00316 µM, first compound 0.0949 µM): 97.8%
viability, T/C (second compound 0.00316 µM, first compound 0.3 µM): 81.5%
viability, T/C (second compound 0.00316 µM, first compound 0.949 µM): 57.9%
viability, T/C (second compound 0.00316 µM, first compound 3 µM): 23.4%
viability, T/C (second compound 0.01 µM, first compound 0.00949 µM): 95.6%
viability, T/C (second compound 0.01 µM, first compound 0.03 µM): 103%
viability, T/C (second compound 0.01 µM, first compound 0.0949 µM): 96.1%
viability, T/C (second compound 0.01 µM, first compound 0.3 µM): 84.2%
viability, T/C (second compound 0.01 µM, first compound 0.949 µM): 46%
viability, T/C (second compound 0.01 µM, first compound 3 µM): 20.8%
viability, T/C (second compound 0.0316 µM, first compound 0.00949 µM): 97.6%
viability, T/C (second compound 0.0316 µM, first compound 0.03 µM): 92.8%
viability, T/C (second compound 0.0316 µM, first compound 0.0949 µM): 92.9%
viability, T/C (second compound 0.0316 µM, first compound 0.3 µM): 60.8%
viability, T/C (second compound 0.0316 µM, first compound 0.949 µM): 38.4%
viability, T/C (second compound 0.0316 µM, first compound 3 µM): 11.8%
viability, T/C (second compound 0.1 µM, first compound 0.00949 µM): 79.4%
viability, T/C (second compound 0.1 µM, first compound 0.03 µM): 69.9%
viability, T/C (second compound 0.1 µM, first compound 0.0949 µM): 66.2%
viability, T/C (second compound 0.1 µM, first compound 0.3 µM): 46%
viability, T/C (second compound 0.1 µM, first compound 0.949 µM): 29.9%
viability, T/C (second compound 0.1 µM, first compound 3 µM): 4.42%
viability, T/C (second compound 0.316 µM, first compound 0.00949 µM): 57.9%
viability, T/C (second compound 0.316 µM, first compound 0.03 µM): 46.5%
viability, T/C (second compound 0.316 µM, first compound 0.0949 µM): 41.3%
viability, T/C (second compound 0.316 µM, first compound 0.3 µM): 28.8%
viability, T/C (second compound 0.316 µM, first compound 0.949 µM): 16.7%
viability, T/C (second compound 0.316 µM, first compound 3 µM): 2.27%
viability, T/C (second compound 1 µM, first compound 0.00949 µM): 35.4%
viability, T/C (second compound 1 µM, first compound 0.03 µM): 34.2%
viability, T/C (second compound 1 µM, first compound 0.0949 µM): 30.1%
viability, T/C (second compound 1 µM, first compound 0.3 µM): 19.6%
viability, T/C (second compound 1 µM, first compound 0.949 µM): 9.79%
viability, T/C (second compound 1 µM, first compound 3 µM): 1.11%
